Laboratory results taken from paper PMC8004929, “Whole-Body Pharmacokinetics and Physiologically Based Pharmacokinetic Model for Monomethyl Auristatin E (MMAE)” (Journal of Clinical Medicine, 2021).
Like-named read-outs stand apart in the source and are kept apart here. Square brackets hold non-standard residues; d marks the D form. Peptide text beside a SMILES is read from it. * marks the point of attachment. Dolaproine = CO[C@@H]([C@@H]1CCCN1)[C@@H](C)C(=O)O; Dil = CC[C@H](C)[C@H](NC)[C@@H](CC(=O)O)OC; X1 = C[C@@H](N*)[C@@H](O)c1ccccc1; NMeV = CN[C@H](C(=O)O)C(C)C

What was measured:
[1] = Whole-body biodistribution / PK study of MMAE in tumor-bearing mice (LC-MS/MS, NCA); assay type: in vivo; details: 0.1 mg/kg i.v.; for AUC0−t: observed conc. by LC-MS/MS, 3 mice per time point; for KPadj: KP adjusted for percentage of cellular volume in total tissue volume
From the text: Male athymic nude mice were purchased at the age of 6 weeks from Charles River (Wilmington, NC, USA). After acclimation to the new conditions for two weeks, mice were subcutaneously injected with MDA-MB-468 (about 10 million tumor cells) into the right dorsal flank. The in vivo study adhered to the Principles of Laboratory Animal Care (National Institutes of Health publication 85–23, revised 1985) and were approved by the University at Buffalo Institutional Animal Care and Use Committee (IACUC# PHC29035Y).
A total of 18 mice (6 weeks old, 26–35 g) bearing MDA-MB-468 xenografts were used for the biodistribution studies. Then, 0.1 mg/kg MMAE was injected into the mice via the penile vein, and terminal samples were collected at 5 min and 1, 6, 12, 24, and 168 h. Three mice were sacrificed at each time point. Whole blood, tissue, and tumor were harvested. The collected tissues included the heart, liver, lung, spleen, pancreas, kidney, skin, bone, muscle, fat, and brain. Whole blood samples in ethylenediaminetetraacetic acid (EDTA) pre-coated tubes were centrifuged at 2000× g for 20 min at 4 °C, and plasma was collected and stored at −20 °C for further analysis. Harvested tissue samples were blotted dry and immediately frozen in liquid nitrogen and stored at −80 °C until homogenization.
A detailed tissue homogenization procedure has been reported previously. Briefly, different volumes of RIPA buffer containing protease inhibitor were added into the weighted tissue samples to obtain different dilution factors in each tissue. The dilution factor was 5 for heart, liver, lung, spleen, pancreas, kidney, skin, and fat, 8 for bone and muscle, and 4 for brain samples. Tissue samples were homogenized using a BeadBug™ microtube homogenizer (Benchmark, USA) at the maximum speed for 15 s followed by a 30-s ice cool down, and repeated three times. Blood samples without dilution were directly homogenized for 30 s at maximum speed and were treated the same way as tissue samples.
Then, 500 µL acetonitrile containing 0.1% formic acid was added into 100 µL of plasma, tissue, or tumor homogenate samples and then spiked with 20 µL of IS solution (D8-MMAE 150 ng/mL). After vortexing and centrifugation at 15,000× g for 15 min at 4 °C, the supernatants were transferred to glass tubes and dried under nitrogen flow at 32 °C. The dried residuals were reconstituted with 60 µL of acetonitrile/water (95:5 v/v) containing 0.1% formic acid, gently vortexed, and immediately transferred into HPLC vials.
Standards and quality control samples (QCs) were prepared for plasma and each tissue matrix. Then, 250 µL of the control plasma or matrices were spiked with 20 µL of IS solution (D8-MMAE 150 ng/mL) and 10 µL of MMAE stock solution diluted with acetonitrile, and then, 500 µL of acetonitrile containing 0.1% formic acid was added. The final concentrations of standard were 0.5, 1, 10, 100, 200, and 500 ng/mL. QCs were prepared similarly for the final concentrations of […].
A Waters Acquity LC-MS/MS system was used with electrospray interphase and triple quadrupole mass spectrometer. An ACQUITY UPLC BEH Amide column (Waters, Milford, MA, USA) was used with 5 mM ammonium formate and 0.1% formic acid as the aqueous phase, and 0.1% formic acid and 1 mM ammonium formate were used as the organic phase. The gradient flow rate was 0.25 mL/min. The lower limit of quantification of MMAE was […] (or ng/g) for plasma, blood, tissues, and tumor.
Noncompartmental analysis (NCA) was conducted for plasma PK data. AUC computed from time 0 to the last observed concentration time (AUC0−t) was calculated using the linear/log trapezoidal method in WinNonlin (version 8.1, Pharsight, St. Louis, MO, USA). Blood to plasma ratios ( KP,BC ) and tissue partition coefficients ( KP,i ) were calculated using Equation (1), using AUC0−t values derived from the observed data. (1) KP,BC or KP,i=AUCi,0−t/AUCp,0−t, […]

[2] = cited from earlier work
Procedure: The PBPK model well captured the PK in plasma, tissues, and tumor simultaneously. CLint was estimated with good precision (%CV = 8.92), and the optimized value was 137 mL/h. […] About 80% of MMAE excretes via feces, and only 6% excretes via urine. Therefore, we assumed that MMAE was eliminated only via metabolism and biliary/fecal excretion from the liver. […] For the derivation of CLint based on in vitro data, the CLint, vitro were estimated using human hepatocyte (3 µL/min/10^6 cells) and human ...

[3] = NCA of plasma, tumor-bearing mice

Structure (SMILES): CC[C@H](C)[C@@H]([C@@H](CC(=O)N1CCC[C@H]1[C@H](OC)[C@@H](C)C(=O)N[C@H](C)[C@@H](O)c1ccccc1)OC)N(C)C(=O)[C@@H](NC(=O)[C@@H](NC)C(C)C)C(C)C [MMAE, Monomethyl auristatin E] (H-[NMeV]V[Dil][Dolaproine]-X1)
- KP (tissue-to-plasma partition coefficient) ([1]; MDA-MB-468 tumor AUC0−t / plasma AUC0−t, tumor-bearing mice): 8.21
- AUC0−t ([1]; MDA-MB-468 tumor, tumor-bearing mice): 619 nM·h
- half-life [1, 3]: 2.5 h
- systemic CL [1, 3]: 60 mL/h
- volume of distribution (Vss) [1, 3]: 42 mL
- plasma AUC from 0 to 12 h ([1]; NCA, tumor-bearing mice): 0.0543 µg·h/mL
- plasma AUC from 0 to infinite ([1]; NCA, tumor-bearing mice): 0.0545 µg·h/mL
- injected dose remaining in plasma ([1]; after 5 min, tumor-bearing mice): 0.3%
- blood-to plasma ratio ([1]; at 6 h, tumor-bearing mice): ≈ 20
- KP (partition coefficient) ([1]; blood (blood cell) AUC0−t / plasma AUC0−t, tumor-bearing mice): 5.46
- KPadj ([1]; blood, tumor-bearing mice): 5.46
- AUC0−t ([1]; blood, MDA-MB-468 tumor-bearing mice): 414 nM·h
- KPadj ([1]; bone, tumor-bearing mice): 1.89
- AUC0−t ([1]; bone, MDA-MB-468 tumor-bearing mice): 110 nM·h
- KP (tissue-to-plasma partition coefficient) ([1]; brain AUC0−t / plasma AUC0−t, tumor-bearing mice): 0.411
- KPadj ([1]; brain, tumor-bearing mice): 0.530
- AUC0−t ([1]; brain, MDA-MB-468 tumor-bearing mice): 31.2 nM·h
- blood-to plasma ratio ([1]; early time-points (<30 min), tumor-bearing mice): about 6
- KP (tissue-to-plasma partition coefficient) ([1]; fat AUC0−t / plasma AUC0−t, tumor-bearing mice): 2.43
- KPadj ([1]; fat, tumor-bearing mice): 3.01
- AUC0−t ([1]; fat, MDA-MB-468 tumor-bearing mice): 184 nM·h
- decrease of MMAE concentration in the tumor ([1]; from 1 to 168 h, MDA-MB-468 tumor, mice): 50%
- KP (tissue-to-plasma partition coefficient) ([1]; heart AUC0−t / plasma AUC0−t, tumor-bearing mice): 17.9
- KPadj ([1]; heart, tumor-bearing mice): 22.8
- AUC0−t ([1]; heart, MDA-MB-468 tumor-bearing mice): 1356 nM·h
- KP (tissue-to-plasma partition coefficient) ([1]; kidney AUC0−t / plasma AUC0−t, tumor-bearing mice): 31.6
- KPadj ([1]; kidney, tumor-bearing mice): 42.4
- AUC0−t ([1]; kidney, MDA-MB-468 tumor-bearing mice): 2396 nM·h
- KP (tissue-to-plasma partition coefficient) ([1]; liver AUC0−t / plasma AUC0−t (apparent, not adjusted for CLint), tumor-bearing mice): 2.42
- KPadj ([1]; liver, tumor-bearing mice): 3.80
- AUC0−t ([1]; liver, MDA-MB-468 tumor-bearing mice): 176 nM·h
- exposure relative to plasma exposure, highly perfused tissues ([1]; lung > spleen > liver > heart, tumor-bearing mice): > 15 fold
- KP (tissue-to-plasma partition coefficient) ([1]; lung AUC0−t / plasma AUC0−t, tumor-bearing mice): 35.3
- KPadj ([1]; lung, tumor-bearing mice): 64.9
- AUC0−t ([1]; lung, MDA-MB-468 tumor-bearing mice): 2679 nM·h
- KP (tissue-to-plasma partition coefficient) ([1]; muscle AUC0−t / plasma AUC0−t, tumor-bearing mice): 1.25
- KPadj ([1]; muscle, tumor-bearing mice): 1.51
- AUC0−t ([1]; muscle, MDA-MB-468 tumor-bearing mice): 94.6 nM·h
- KP (tissue-to-plasma partition coefficient) ([1]; pancreas AUC0−t / plasma AUC0−t, tumor-bearing mice): 2.11
- KPadj ([1]; pancreas, tumor-bearing mice): 2.93
- AUC0−t ([1]; pancreas, MDA-MB-468 tumor-bearing mice): 160 nM·h
- AUC0−t ([1]; plasma, MDA-MB-468 tumor-bearing mice, linear/log trapezoidal): 75.4 nM·h
- KP (tissue-to-plasma partition coefficient) ([1]; skin AUC0−t / plasma AUC0−t, tumor-bearing mice): 1.71
- KPadj ([1]; skin, tumor-bearing mice): 2.87
- AUC0−t ([1]; skin, MDA-MB-468 tumor-bearing mice): 130 nM·h
- KP (tissue-to-plasma partition coefficient) ([1]; spleen AUC0−t / plasma AUC0−t, tumor-bearing mice): 27.1
- KPadj ([1]; spleen, tumor-bearing mice): 47.2
- AUC0−t ([1]; spleen, MDA-MB-468 tumor-bearing mice): 2056 nM·h
- KP in the liver after accounting for CLint, without adjustments for the fractional cellular volume ([1]; tumor-bearing mice): 25.3
- exposure relative to plasma exposure, fat, pancreas, skin, bone, and muscle ([1]; tumor-bearing mice): about 2 fold
- time up to which MMAE concentration in the liver was quantifiable ([1]; tumor-bearing mice, LLOQ 0.2 ng/g): 6 h
- Plasma concentration after 12 h ([1]; tumor-bearing mice, LLOQ 0.2 ng/mL, LC-MS/MS): below the limit of quantification
- in vitro CLint (CLint, vitro) ([2]; human liver hepatocyte): 3 µL/min/10^6 cells
- in vitro CLint (CLint, vitro) ([2]; human liver microsome): 24 µL/min/mg
